Measurements: patent US10308643B2, “Heterocyclic compound” (Takeda Pharmaceutical Company Limited, priority 2015, dated 2019)

How the values were obtained:
Assay type in all cases: biochemical
HDAC6 enzyme = biological target: T1, HDAC6 enzyme (Homo sapiens, UniProt Q9UBN7); assay: HDAC1/6 Enzyme Inhibitory Assay (HDAC-Glo I/II Assay kit), HDAC6; conditions: 1 μM test compound, wells without enzyme = 100% inhibition; for inhibition at 1 µM: read-out: HDAC6 inhibitory rate (%) (1 μM)
T1 construct: transducing full length HDAC1 and HDAC6 genes into Sf-9 insect cells; GST; purchased SignalChem; host or cells: Sf-9 insect cells
T1 sequence (Q9UBN7 1-1215): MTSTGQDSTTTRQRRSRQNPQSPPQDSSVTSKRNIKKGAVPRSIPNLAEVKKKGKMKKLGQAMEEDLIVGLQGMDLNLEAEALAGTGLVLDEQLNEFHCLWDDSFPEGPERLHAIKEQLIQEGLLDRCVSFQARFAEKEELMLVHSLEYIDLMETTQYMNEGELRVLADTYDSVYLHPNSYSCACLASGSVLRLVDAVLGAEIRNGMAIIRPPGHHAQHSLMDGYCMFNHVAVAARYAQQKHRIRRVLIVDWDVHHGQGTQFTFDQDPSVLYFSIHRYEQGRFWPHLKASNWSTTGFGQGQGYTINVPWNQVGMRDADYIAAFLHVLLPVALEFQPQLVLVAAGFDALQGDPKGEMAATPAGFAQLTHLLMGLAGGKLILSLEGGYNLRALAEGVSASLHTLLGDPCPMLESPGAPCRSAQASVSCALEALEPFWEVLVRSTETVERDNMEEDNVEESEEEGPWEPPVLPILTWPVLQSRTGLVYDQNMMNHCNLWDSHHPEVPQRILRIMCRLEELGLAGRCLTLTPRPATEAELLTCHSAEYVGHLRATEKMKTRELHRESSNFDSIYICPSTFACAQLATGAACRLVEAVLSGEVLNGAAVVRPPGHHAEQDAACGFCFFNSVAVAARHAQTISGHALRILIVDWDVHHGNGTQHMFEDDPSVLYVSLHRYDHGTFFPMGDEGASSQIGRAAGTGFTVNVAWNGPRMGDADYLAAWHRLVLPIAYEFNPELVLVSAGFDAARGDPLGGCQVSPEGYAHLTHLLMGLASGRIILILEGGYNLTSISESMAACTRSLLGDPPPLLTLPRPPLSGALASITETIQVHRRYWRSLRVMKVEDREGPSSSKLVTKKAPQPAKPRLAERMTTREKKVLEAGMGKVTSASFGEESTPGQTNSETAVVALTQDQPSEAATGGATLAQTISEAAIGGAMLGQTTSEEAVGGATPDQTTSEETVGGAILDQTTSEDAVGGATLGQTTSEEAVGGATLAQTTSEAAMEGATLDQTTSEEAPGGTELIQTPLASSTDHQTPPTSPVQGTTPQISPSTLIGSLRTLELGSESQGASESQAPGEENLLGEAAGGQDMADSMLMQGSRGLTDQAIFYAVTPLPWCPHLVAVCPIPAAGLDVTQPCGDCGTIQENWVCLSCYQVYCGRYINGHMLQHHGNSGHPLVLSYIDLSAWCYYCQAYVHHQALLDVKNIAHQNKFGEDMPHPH
Procedure: (§1) HDAC1/6 Enzyme Inhibitory Assay
(§2) HDAC1 enzyme and HDAC6 enzyme each prepared by transducing full length HDAC1 and HDAC6 genes into Sf-9 insect cells and purifying by GST affinity column were purchased from SignalChem. Using these enzymes, HDAC1 and/or HDAC6 enzyme inhibitory activities of the compound of the present invention were evaluated. Enzymes were used after preserved at −70° C. HDAC1 or HDAC6 enzyme inhibitory activity of the compound of the present invention was measured using HDAC-Glo™ I/II Assay kit (Promega) according to the following experimental method. The test compound diluted with assay buffer (24 mM Tris-HCl (pH 7.5), 1 mM MgCl2, 0.35 mM KCl, 135 mM NaCl, 0.6 mM Glutathione, 0.01% Tween-20) was added to a 384-well plate by each 2 μL. Then, HDAC1 or HDAC6 enzyme solution diluted with assay buffer was added thereto by each 4 μL, and the plate was incubated at room temperature for 60 min. After incubated, HDAC substrate-Developer solution prepared according to Promega protocol attached to the assay kit was added to the 384-well plate by each 2 μL, and the enzyme reaction was started. After reacting at room temperature for 20 min, luminescence level was measured using plate reader Envision (PerkinElmer). The inhibitory activity of each compound was calculated as a relative activity value when luminescence level in wells without enzyme is considered as 100% inhibition.

HDAC1 enzyme = biological target: T2, HDAC1 enzyme (Homo sapiens, UniProt Q13547); assay: HDAC1/6 Enzyme Inhibitory Assay (HDAC-Glo I/II Assay kit), HDAC1; conditions: 1 μM test compound, wells without enzyme = 100% inhibition; for inhibition at 1 µM: read-out: HDAC1 inhibitory rate (%) (1 μM)
T2 construct: transducing full length HDAC1 and HDAC6 genes into Sf-9 insect cells; GST; purchased SignalChem; host or cells: Sf-9 insect cells
T2 sequence (Q13547 whole entry): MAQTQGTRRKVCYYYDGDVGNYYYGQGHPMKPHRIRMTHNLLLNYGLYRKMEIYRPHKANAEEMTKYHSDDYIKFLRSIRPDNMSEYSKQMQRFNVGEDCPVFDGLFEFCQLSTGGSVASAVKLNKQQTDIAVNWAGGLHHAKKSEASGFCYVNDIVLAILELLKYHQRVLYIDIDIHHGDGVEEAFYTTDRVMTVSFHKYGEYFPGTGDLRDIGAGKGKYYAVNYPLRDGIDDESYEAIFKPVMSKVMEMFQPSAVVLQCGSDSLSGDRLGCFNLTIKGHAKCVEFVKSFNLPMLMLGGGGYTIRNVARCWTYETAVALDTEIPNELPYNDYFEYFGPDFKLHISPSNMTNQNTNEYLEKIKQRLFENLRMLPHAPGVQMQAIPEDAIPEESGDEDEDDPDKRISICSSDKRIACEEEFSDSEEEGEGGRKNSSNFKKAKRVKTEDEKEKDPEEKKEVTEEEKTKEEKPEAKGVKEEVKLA
Procedure: as §1, §2

HDAC9 enzyme = biological target: T3, HDAC9 enzyme (Homo sapiens, UniProt Q9UKV0); assay: HDAC9 Enzyme Inhibitory Assay (HDAC-Glo class IIa); conditions: 1 μM test compound, wells without enzyme = 100% inhibition; for inhibition at 1 µM: read-out: HDAC9 inhibitory rate (%) (1 μM)
T3 construct: transducing full length HDAC9 gene into Sf-9 insect cells; made in house; host or cells: Sf-9 insect cells
T3 sequence (Q9UKV0 whole entry, species assumed): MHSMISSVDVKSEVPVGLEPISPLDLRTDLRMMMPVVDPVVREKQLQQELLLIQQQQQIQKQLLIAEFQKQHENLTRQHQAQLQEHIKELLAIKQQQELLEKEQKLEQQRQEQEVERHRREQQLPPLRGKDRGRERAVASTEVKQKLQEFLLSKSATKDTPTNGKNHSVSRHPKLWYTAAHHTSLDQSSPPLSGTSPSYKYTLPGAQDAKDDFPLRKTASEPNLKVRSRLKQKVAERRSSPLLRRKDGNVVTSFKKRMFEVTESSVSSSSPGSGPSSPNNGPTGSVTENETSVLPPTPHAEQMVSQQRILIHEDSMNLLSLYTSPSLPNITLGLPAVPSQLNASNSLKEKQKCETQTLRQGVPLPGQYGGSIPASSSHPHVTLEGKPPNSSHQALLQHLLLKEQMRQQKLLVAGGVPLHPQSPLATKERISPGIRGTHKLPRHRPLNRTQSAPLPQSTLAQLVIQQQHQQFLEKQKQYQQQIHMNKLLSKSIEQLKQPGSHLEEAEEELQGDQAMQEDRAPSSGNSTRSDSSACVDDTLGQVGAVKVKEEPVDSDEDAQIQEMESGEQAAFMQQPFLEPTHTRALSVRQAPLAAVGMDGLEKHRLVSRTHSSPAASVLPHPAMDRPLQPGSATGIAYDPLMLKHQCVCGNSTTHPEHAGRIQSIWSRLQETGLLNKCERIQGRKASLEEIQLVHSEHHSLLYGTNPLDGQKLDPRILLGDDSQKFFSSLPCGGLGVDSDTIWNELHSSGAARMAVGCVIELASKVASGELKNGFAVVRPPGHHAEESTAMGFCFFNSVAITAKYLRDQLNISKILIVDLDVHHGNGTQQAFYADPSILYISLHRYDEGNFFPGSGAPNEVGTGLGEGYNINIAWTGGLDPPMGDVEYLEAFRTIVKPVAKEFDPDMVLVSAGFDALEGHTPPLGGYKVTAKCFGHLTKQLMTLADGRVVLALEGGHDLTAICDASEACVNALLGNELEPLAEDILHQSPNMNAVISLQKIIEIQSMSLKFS
Procedure: HDAC9 Enzyme Inhibitory Assay
Enzyme was prepared by transducing full length HDAC9 gene into Sf-9 insect cells and purifying by Ni-NTA affinity column, and HDAC9 enzyme inhibitory activity was evaluated. Enzymes were used after preserved at −70° C. HDAC9 enzyme inhibitory activity of the test compound was measured using HDAC-Glo class IIa (Promega) according to the following experimental method. The test compound diluted with assay buffer (24 mM Tris-HCl (pH 7.5), 1 mM MgCl2, 0.35 mM KCl, 135 mM NaCl, 0.6 mM Glutathione, 0.01% Tween-20) was added to a 384-well plate by each 2 μL. Then, HDAC9 enzyme solution diluted with assay buffer was added thereto by each 2 μL, and the plate was incubated at room temperature for 60 min. After incubated, HDAC substrate-Developer solution prepared according to Promega protocol was added to the 384-well plate by each 4 μL, and the enzyme reaction was started. After reacting at room temperature for 20 min, luminescence level was measured using plate reader Envision (PerkinElmer). The inhibitory activity of each compound was calculated as a relative activity value when luminescence level in wells without enzyme is considered as 100% inhibition.

| inhibition at 1 µM (HDAC6 enzyme) [%] | inhibition at 1 µM (HDAC1 enzyme) [%] | inhibition at 1 µM (HDAC9 enzyme) [%] | HDAC6 inhibitory rate (%) (1 μM) (HDAC6 enzyme; 1 µM) | HDAC1 inhibitory rate (%) (1 μM) (HDAC1 enzyme) | HDAC9 inhibitory rate (%) (1 μM) (HDAC9 enzyme; 1 µM) | SMILES |
| --- | --- | --- | --- | --- | --- | --- |
| 99 | 4 | 55 | – | – | – | O=C(N[C@@H]1CCCC[C@H]1N1Cc2ccc(-c3noc(C(F)(F)F)n3)cc2C1=O)C1C[C@@H]1F (stereo partly drawn) [Example 98, 2-fluoro-N-((1R,2R)-2-(1-oxo-6-(5-(trifluoromethyl)-1,2,4-oxadiazol-3-yl)-1,3-dihydro-2H-isoindol-2-yl)cyclohexyl) cyclopropanecarboxamide] |
| 43 | 4 | 32 | – | – | – | CC1(C(=O)N[C@H]2CCCC[C@@H]2N2Cc3ccc(-c4noc(C(F)(F)F)n4)cc3C2=O)COC1 [Example 193, 3-methyl-N-((1S,2S)-2-(1-oxo-6-(5-(trifluoromethyl)-1,2,4-oxadiazol-3-yl)-1,3-dihydro-2H-isoindol-2-yl)cyclohexyl)oxetane-3-carboxamide] |
| 84 | 23 | 65 | – | – | – | O=C(N[C@H]1COCC[C@@H]1N1Cc2ccc(-c3noc(C(F)(F)F)n3)cc2C1=O)[C@@H]1CC1(F)F [Example 220, (1S)-2,2-difluoro-N-((3R,4S)-4-(1-oxo-6-(5-(trifluoromethyl)-1,2,4-oxadiazol-3-yl)-1,3-dihydro-2H-isoindol-2-yl)tetrahydro-2H-pyran-3-yl)cyclopropanecarboxamide] |
| 93 | 6 | 70 | – | – | – | O=C1CCC2(CCC(N3Cc4ccc(-c5noc(C(F)(F)F)n5)cc4C3=O)CC2)N1 (stereo not drawn) [Example 64, (5r,8r)-8-(1-oxo-6-(5-(trifluoromethyl)-1,2,4-oxadiazol-3-yl)-1,3-dihydro-2H-isoindol-2-yl)-1-azaspiro[4.5]decan-2-one] |
| 68 | 5 | 75 | – | – | – | N[C@H]1CCCC[C@H]1N1Cc2ccc(-c3noc(C(F)(F)F)n3)cc2C1=O (relative stereo) [Example 199, 2-(cis-2-aminocyclohexyl)-6-(5-(trifluoromethyl)-1,2,4-oxadiazol-3-yl)isoindolin-1-one] |
| 98 | 9 | 48 | – | – | – | O=C(N[C@@H]1CCCC[C@H]1N1Cc2ccc(-c3noc(C(F)(F)F)n3)cc2C1=O)C1CC1 (relative stereo) [Example 12, trans-N-(2-(1-oxo-6-(5-(trifluoromethyl)-1,2,4-oxadiazol-3-yl)-1,3-dihydro-2H-isoindol-2-yl)cyclohexyl)cyclopropanecarboxamide] |

More lines, now with the values behind:

| SMILES | inhibition at 1 µM (HDAC6 enzyme) [%] | inhibition at 1 µM (HDAC1 enzyme) [%] | inhibition at 1 µM (HDAC9 enzyme) [%] | HDAC6 inhibitory rate (%) (1 μM) (HDAC6 enzyme; 1 µM) | HDAC1 inhibitory rate (%) (1 μM) (HDAC1 enzyme) | HDAC9 inhibitory rate (%) (1 μM) (HDAC9 enzyme; 1 µM) |
| --- | --- | --- | --- | --- | --- | --- |
| O=C1c2cc(-c3noc(C(F)(F)F)n3)ccc2CN1[C@@H]1CCNC[C@H]1c1cccc(Cl)c1 (relative stereo) [Example 53, 2-(trans-3-(3-chlorophenyl)piperidin-4-yl)-6-(5-(trifluoromethyl)-1,2,4-oxadiazol-3-yl)isoindolin-1-one] | 97 | 98 | 99 | – | – | – |
| O=C(N[C@H]1CCOC[C@H]1N1Cc2ccc(-c3noc(C(F)(F)F)n3)cc2C1=O)C1CC1(F)F (single isomer, unassigned) [Example 214, (1R) or (1S)-2,2-difluoro-N-((3S,4S)-3-(1-oxo-6-(5-(trifluoromethyl)-1,2,4-oxadiazol-3-yl)-1,3-dihydro-2H-isoindol-2-yl)tetrahydro-2H-pyran-4-yl)cyclopropanecarboxamide] | – | – | – | 98 | 68 | 97 |
| O=C1c2cc(-c3noc(C(F)(F)F)n3)ccc2CN1[C@@H]1CCOC[C@H]1c1ccccc1 (relative stereo) [Example 34, trans-2-(3-phenyltetrahydro-2H-pyran-4-yl)-6-(5-(trifluoromethyl)-1,2,4-oxadiazol-3-yl)isoindolin-1-one] | 99 | – | 96 | – | 90 | – |
| O=C1c2cc(-c3noc(C(F)(F)F)n3)ccc2CN1[C@@H]1CCNC[C@H]1c1ccc(Cl)c(F)c1 (relative stereo) [Example 52, 2-(trans-3-(4-chloro-3-fluorophenyl)piperidin-4-yl)-6-(5-(trifluoromethyl)-1,2,4-oxadiazol-3-yl)isoindolin-1-one] | 97 | 97 | 99 | – | – | – |
| O=C(N[C@@H]1CCCC[C@H]1N1Cc2ccc(-c3noc(C(F)(F)F)n3)cc2C1=O)N1C2COCC1C2 [Example 144, N-((1R,2R)-2-(1-oxo-6-(5-(trifluoromethyl)-1,2,4-oxadiazol-3-yl)-1,3-dihydro-2H-isoindol-2-yl)cyclohexyl)-3-oxa-6-azabicyclo[3.1.1]heptane-6-carboxamide] | 100 | 3 | 31 | – | – | – |
| O=C1c2ccc(-c3noc(C(F)(F)F)n3)cc2CN1[C@@H]1CNCC[C@H]1c1ccccc1 (relative stereo) [Example 72, trans-2-(4-phenylpiperidin-3-yl)-5-(5-(trifluoromethyl)-1,2,4-oxadiazol-3-yl)isoindolin-1-one] | 90 | 32 | 80 | – | – | – |
| CC(CO)(CCl)C(=O)N[C@@H]1CCCC[C@H]1N1Cc2ccc(-c3noc(C(F)(F)F)n3)cc2C1=O (relative stereo) [Example 203, 3-chloro-2-(hydroxymethyl)-2-methyl-N-(trans-2-(1-oxo-6-(5-(trifluoromethyl)-1,2,4-oxadiazol-3-yl)-1,3-dihydro-2H-isoindol-2-yl)cyclohexyl)propanamide] | 100 | 8 | 69 | – | – | – |
| CC(C)(C)OC(=O)N[C@H]1CCCC[C@H]1N1Cc2ccc(-c3noc(C(F)(F)F)n3)cc2C1=O [Example 85, tert-butyl ((1S,2R)-2-(1-oxo-6-(5-(trifluoromethyl)-1,2,4-oxadiazol-3-yl)-1,3-dihydro-2H-isoindol-2-yl)cyclohexyl)carbamate] | 98 | 41 | 67 | – | – | – |
